For this assay, the target named is human CB1 receptor (Homo sapiens, UniProt P21554). The assay can be described thus: Human CB1 receptor binding, [3H] CP-55,940 displacement on HEK cell membranes. Also on record: expressed in transfected cells; host or cells: HEK cells, doxycycline-induced; membrane preparation. Here is the method:
The Human CB1 receptor binding affinity and other biological activities of the compounds of this invention are determined by the following procedures. Membrane preparation: Human Embryonic Kidney (HEK) Cells expressing the human CB1 receptor under transcriptional regulation of a tetracycline inducible promoter were grown in Dulbecco's Modified Essential Medium with sodium pyruvate (Invitrogen, Carlsbad, Calif.) containing 10% tetracycline free fetal bovine serum (Clonetech, Mountain View, Calif.) 100 μg/ml hygromycin (Calbiochem, San Diego, Calif.), 5 μg/ml blasticidin (Invitrogen). CB1 receptor expression was induced by addition of 1 μg/ml doxycycline (Calbiochem) and incubation for an additional 24 hours. Cells were released from flasks using Cell Dissociation Buffer (Invitrogen). Cells were pelleted by centrifugation at 500×G for 5 minutes. Membranes were prepared by resuspending cells in ice cold TEE Buffer (25 mM Tris pH 7.4, 5 mM EDTA, 5 mM EGTA, Complete Protease Inhibitor (Roche, Basel, Switzerland)). Cells were lysed with 12 strokes of a dounce homogenizer. Unlysed cells were pelleted by centrifugation at 500×G for 5 minutes. Membranes were pelleted by centrifugation at 25,000×G for 30 minutes. Membranes were resuspended in TEE, dounced 12 strokes, and pelleted a second time at 25,000×G for 30 minutes. Membrane pellet was resuspended in 50 mM Tris pH 7.4, 100 mM NaCl, 3 mM MgCl2, 0.2 mM EGTA, Complete Protease Inhibitor (Roche). Protein concentration was determined using the Micro-BCA Protein Assay Kit (Pierce, Rockford, Ill.) using BSA as a standard. Membranes were quick frozen and stored at −80 degrees Celsius until use.
Binding experiments: 50 μl of test compound was incubated with 50 μl of [^3H] CP-55,940 (Perkin Elmer, Boston, Mass.) (final concentration=[…]) and 150 μl of membrane homogenate (1 μg/well) in polypropylene 96-well plates (Corning, Acton, Mass.). Final reaction conditions were 50 mM Tris pH 7.4, 100 mM NaCl, 3 mM MgCl2, 0.2 mM EGTA, 0.04% BSA. Nonspecific binding was determined by incubation with 50 μM WIN-55, 212-2 (Tocris, Ellisville, Mo.). After incubation at room temperature for 60 minutes reactions were harvested by vacuum filtration through Unifilter GF/B-96 filters (Perkin Elmer) that had been presoaked in assay buffer containing 0.5% BSA (Sigma, St. Louis, Mo.) using a FilterMate Plate Harvester (Perkin Elmer). Filters were rinsed 4 times with 50 mM Tris pH 7.4, 0.025% Tween-20 and dried at 50 degrees Celsius for at least 30 minutes. 40 μl of Microscint-20 (Perkin Elmer) was added per well, and plates were counted using a Top-Count Microplate Scintillation Counter (Perkin Elmer). Binding data were analyzed and EC50 and K, values calculated using Graph Pad Prism 4.0 Software.

Read-outs that look alike come from different tables or passages of the source.

Chain of human CB1 receptor (P21554 whole entry): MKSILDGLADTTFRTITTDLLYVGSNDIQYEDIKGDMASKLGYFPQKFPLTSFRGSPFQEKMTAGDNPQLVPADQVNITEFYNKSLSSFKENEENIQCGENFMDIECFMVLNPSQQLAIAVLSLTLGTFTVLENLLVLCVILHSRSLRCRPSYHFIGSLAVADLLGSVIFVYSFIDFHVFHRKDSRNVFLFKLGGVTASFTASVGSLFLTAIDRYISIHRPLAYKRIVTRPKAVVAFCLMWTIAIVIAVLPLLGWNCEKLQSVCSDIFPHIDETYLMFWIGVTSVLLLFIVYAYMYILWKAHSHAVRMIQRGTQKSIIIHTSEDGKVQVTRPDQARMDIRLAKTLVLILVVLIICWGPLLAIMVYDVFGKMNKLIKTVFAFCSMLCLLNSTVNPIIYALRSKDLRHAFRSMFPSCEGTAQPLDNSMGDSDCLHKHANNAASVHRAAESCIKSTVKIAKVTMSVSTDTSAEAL

For `CC(C)(C)[C@H](NC(=O)c1nn(Cc2ccc(C#N)cc2)c2ccccc12)C(=O)NCC1CCC(=O)N1` (stereo partly drawn) [Example 401], the Ki (CB1 Ki) is more than 400 nM. Where the note is “CB1 Ki”, `CC(C)(C)[C@H](NC(=O)c1nn(Cc2ccc(C#N)cc2)c2c(F)cccc12)C(=O)NCC1CCC(=O)N1` (stereo partly drawn) [Example 402] came in with a Ki of 277 nM. Same read-out and setting: the figure for `CC(C)(C)[C@H](NC(=O)c1nn(Cc2ccc(C#N)cc2)c2cc(F)ccc12)C(=O)NCC1CCC(=O)N1` (stereo partly drawn) [Example 403] is more than 400 nM. Consider `CC(C)NC(=O)[C@@H](NC(=O)c1nn(Cc2ccc(C#N)cc2)c2ccccc12)C(C)(C)C` [Example 405], for which affinity (CB1 Ki) was put at a Ki of 48.1 nM. For the compound `CC(C)(C)[C@H](NC(=O)c1nn(Cc2ccc(C#N)cc2)c2ccccc12)C(=O)NC1CCC1` [Example 406], for the setting “CB1 Ki”, affinity was put at a Ki of 89.7 nM.

In turn, `CC(C)(C)[C@H](NC(=O)c1nn(Cc2ccc(C#N)cc2)c2ccccc12)C(=O)NCC1CC1` [Example 407] returned a Ki (CB1 Ki) of 36.2 nM. On to `CN1CC(CNC(=O)[C@@H](NC(=O)c2nn(Cc3ccc(C#N)cc3)c3ccccc23)C(C)(C)C)CC1=O` (stereo partly drawn) [Example 408], for which, for the setting “read-out: CB1 Ki”, the Ki was more than 400 nM. In the case of `CN1CC(CNC(=O)[C@@H](NC(=O)c2nn(Cc3ccc(C#N)cc3)c3c(F)cccc23)C(C)(C)C)CC1=O` (stereo partly drawn) [Example 409], under “read-out: CB1 Ki”, the Ki came to 73 nM. `CN1CC(CNC(=O)[C@@H](NC(=O)c2nn(Cc3ccc(C#N)cc3)c3cc(F)ccc23)C(C)(C)C)CC1=O` (stereo partly drawn) [Example 410]: the Ki (read-out: CB1 Ki) is 104 nM. For the compound `CC(C)(C)[C@H](NC(=O)c1nn(Cc2ccc(C#N)cc2)c2ccccc12)C(=O)NO` [Example 412], the inhibition constant Ki (CB1 Ki) is more than 400 nM. Consider `CC(C)(C)[C@H](NC(=O)c1nn(Cc2ccc(F)cc2)c2ccccc12)C(=O)NCc1nnc2n1CCC2` [Example 419], for which the Ki (read-out: CB1 Ki) was 110 nM. For `CC(C)(C)[C@H](NC(=O)c1nn(Cc2ccc(F)cc2)c2c(Cl)cccc12)C(=O)NCc1ccc(C(=O)O)cc1` [Example 426], the Ki (read-out: CB1 Ki) amounted to 90 nM. On to `CC(C)(C)[C@H](NC(=O)c1nn(Cc2ccc(F)cc2)c2ccc(Cl)cc12)C(=O)NCCO` [Example 428], for which, under “CB1 Ki”, the affinity, expressed as Ki, was 0.89 nM. The compound `CC(C)(C)[C@H](NC(=O)c1nn(Cc2ccc(F)cc2)c2ccc(Cl)cc12)C(N)=O` [Example 429] came in with a Ki (CB1 Ki) of 0.44 nM. The same measure, in the same setting: to `CC(C)(C)[C@H](NC(=O)c1nn(Cc2ccc(F)cc2)c2ccc(Cl)cc12)C(=O)NCC(N)=O` [Example 430] belongs 18.2 nM. On to `CC(C)(C)[C@H](NC(=O)c1nn(Cc2ccc(F)cc2)c2ccc(Cl)cc12)C(=O)NC[C@H](O)CO` [Example 431], for which the affinity (CB1 Ki) corresponds to a Ki of 13.6 nM. In turn, `CC(C)(C)[C@H](NC(=O)c1nn(Cc2ccc(F)cc2)c2ccc(Cl)cc12)C(=O)NCCS(C)(=O)=O` [Example 433] registered a Ki (CB1 Ki) of 35.5 nM.

On to `CC(C)(C)[C@H](NC(=O)c1nn(Cc2ccc(F)cc2)c2ccc(Cl)cc12)C(=O)NC[C@@H](O)CO` [Example 434], for which the Ki (CB1 Ki) worked out at 55.1 nM. `CC(C)(C)[C@H](NC(=O)c1nn(Cc2ccc(F)cc2)c2ccc(Cl)cc12)C(=O)NC(CO)CO` [Example 435] displayed a Ki (CB1 Ki) of 6.5 nM. `CC(C)(C)[C@H](NC(=O)c1nn(Cc2ccc(F)cc2)c2ccc(Cl)cc12)C(=O)NC1CC1` [Example 436]: where the note is “CB1 Ki”, the affinity corresponds to a Ki of 1.13 nM. In turn, `CC(C)NC(=O)[C@@H](NC(=O)c1nn(Cc2ccc(F)cc2)c2ccc(Cl)cc12)C(C)(C)C` [Example 437] registered a Ki (CB1 Ki) of 2.79 nM.

For `CC(C)(C)[C@H](NC(=O)c1nn(Cc2ccc(F)cc2)c2ccc(Cl)cc12)C(=O)NCC1CC1` [Example 439], the Ki (CB1 Ki) stood at 3.26 nM. The same measure, in the same setting: the figure for `CC(C)(C)[C@H](NC(=O)c1nn(Cc2ccc(C#N)cc2)c2ccc(Cl)cc12)C(N)=O` [Example 440] is 104 nM; for `CC(C)(C)[C@H](NC(=O)c1nn(Cc2ccc(C#N)cc2)c2ccc(Cl)cc12)C(=O)NC[C@H](O)CO` [Example 441] it is more than 400 nM. The same measure, in the same setting: the figure for `CC(C)(C)[C@H](NC(=O)c1nn(Cc2ccc(C#N)cc2)c2ccc(Cl)cc12)C(=O)NCCS(C)(=O)=O` [Example 442] is more than 400 nM. As for `CC(C)(C)[C@H](NC(=O)c1nn(Cc2ccc(C#N)cc2)c2ccc(Cl)cc12)C(=O)NCC(N)=O` [Example 443], where the note is “CB1 Ki”, the Ki is more than 400 nM. `CC(C)(C)[C@H](NC(=O)c1nn(Cc2ccc(C#N)cc2)c2ccc(Cl)cc12)C(=O)NCCS(N)(=O)=O` [Example 444] registered a Ki (CB1 Ki) of more than 400 nM. For `CC(C)(C)[C@H](NC(=O)c1nn(Cc2ccc(C#N)cc2)c2ccc(Cl)cc12)C(=O)NC[C@@H](O)CO` [Example 445], the Ki (CB1 Ki) was more than 400 nM. Still for that read-out and setting: to `CC(C)(C)[C@H](NC(=O)c1nn(Cc2ccc(C#N)cc2)c2ccc(Cl)cc12)C(=O)NC1CC1` [Example 446] belongs 168 nM. `CC(C)(C)[C@H](NC(=O)c1nn(Cc2ccc(C#N)cc2)c2ccc(Cl)cc12)C(=O)NCCO` [Example 447] had a Ki (CB1 Ki) of 170 nM. On the same count and under the same terms, the figure for `CC(C)(C)[C@H](NC(=O)c1nn(Cc2ccc(C#N)cc2)c2ccc(Cl)cc12)C(=O)NC(CO)CO` [Example 448] is more than 400 nM; for `CC(C)(C)[C@H](NC(=O)c1nn(Cc2ccc(C#N)cc2)c2ccc(Cl)cc12)C(=O)NC1CCC1` [Example 449] it is more than 400 nM.

As for `CC(C)NC(=O)[C@@H](NC(=O)c1nn(Cc2ccc(C#N)cc2)c2ccc(Cl)cc12)C(C)(C)C` [Example 450], where the note is “CB1 Ki”, the affinity, expressed as Ki, was 241 nM.

On to `CC(C)(C)[C@H](NC(=O)c1nn(Cc2ccc(C#N)cc2)c2ccc(Cl)cc12)C(=O)NCC1CC1` [Example 451], for which the Ki (CB1 Ki) is more than 400 nM.

`CC(C)(C)[C@H](NC(=O)c1nn(Cc2ccc(C#N)cc2)c2ccccc12)C(=O)N[C@H]1CNC(=O)C1` [Example 452] returned a Ki (CB1 Ki) of more than 400 nM. For `CC(C)(C)[C@H](NC(=O)c1nn(Cc2ccc(C#N)cc2)c2c(F)cccc12)C(=O)N[C@H]1CNC(=O)C1` [Example 453], the Ki (CB1 Ki) is more than 400 nM. On the same count and under the same terms, the figure for `CC(C)(C)[C@H](NC(=O)c1nn(Cc2ccc(C#N)cc2)c2cc(F)ccc12)C(=O)N[C@H]1CNC(=O)C1` [Example 454] is more than 400 nM; for `CC(C)(C)[C@H](NC(=O)c1nn(Cc2ccc(F)cc2)c2ccccc12)C(=O)N[C@H]1CNC(=O)C1` [Example 455] it is 33.6 nM; for `CC(C)(C)[C@H](NC(=O)c1nn(Cc2ccc(C#N)cc2)c2ccccc12)C(=O)N[C@@H]1CNC(=O)C1` [Example 456] it is 43.8 nM. `CC(C)(C)[C@H](NC(=O)c1nn(Cc2ccc(C#N)cc2)c2cc(F)ccc12)C(=O)N[C@@H]1CNC(=O)C1` [Example 458] registered a Ki (CB1 Ki) of 120 nM. Take `CC(C)(C)[C@H](NC(=O)c1nn(Cc2ccc(F)cc2)c2ccccc12)C(=O)NCc1[nH]nc2c1CCC2` [Example 460]: the Ki (read-out: CB1 Ki) worked out at 24.6 nM.

Turning to `CC(C)(C)[C@H](NC(=O)c1nn(Cc2ccc(C#N)cc2)c2ccccc12)C(=O)NCc1nnc(C(=O)NCCO)o1` [Example 461], the Ki (read-out: CB1 Ki) is more than 400 nM. Consider `CC(C)(C)[C@H](NC(=O)c1nn(Cc2ccc(C#N)cc2)c2cc(F)ccc12)C(=O)NCc1nnc(C(=O)NCCO)o1` [Example 463], for which, where the note is “read-out: CB1 Ki”, the Ki is 274 nM. `CC(C)(C)[C@H](NC(=O)c1nn(Cc2ccc(C#N)cc2)c2c(F)cccc12)C(=O)NCc1nnc(C(=O)NCCO)o1` [Example 464]: the Ki (read-out: CB1 Ki) came to 58 nM.

For `CC(C)(C)[C@H](NC(=O)c1nn(Cc2ccc(C#N)cc2)c2ccccc12)C(=O)NCCN1CCNC(=O)C1` [Example 465], the Ki (read-out: CB1 Ki) is more than 400 nM. The same measure, in the same setting: the figure for `CC(C)(C)[C@H](NC(=O)c1nn(Cc2ccc(C#N)cc2F)c2ccccc12)C(=O)NCCN1CCNC(=O)C1` [Example 466] is more than 400 nM; for `CC(C)(C)[C@H](NC(=O)c1nn(Cc2ccc(F)cc2)c2ccccc12)C(=O)NCCN1CCNC(=O)C1` [Example 467] it is 53.8 nM; for `CC(C)(C)[C@H](NC(=O)c1nn(Cc2ccc(F)cc2F)c2ccccc12)C(=O)NCCN1CCNC(=O)C1` [Example 468] it is 23.5 nM. As to `CC(C)(C)[C@H](NC(=O)c1nn(Cc2ccc(F)c(F)c2)c2ccccc12)C(=O)NCCN1CCNC(=O)C1` [Example 469], the inhibition constant (Ki) (read-out: CB1 Ki) stood at 80.7 nM.

Consider `CC(C)(C)[C@H](NC(=O)c1nn(Cc2ccc(C#N)cc2F)c2ccccc12)C(=O)NCCC(N)=O` [Example 471], for which the Ki (CB1 Ki) is more than 400 nM. Consider `CC(C)(C)[C@H](NC(=O)c1nn(Cc2ccc(F)cc2)c2c(F)cccc12)C(=O)NCCN1CCNC(=O)C1` [Example 474], for which, where the note is “read-out: CB1 Ki”, the Ki amounted to 41.2 nM.

The record behind these values is patent publication US20110028447A1, “INDAZOLE DERIVATIVES” (Pfizer Inc., priority 2008, published 2011).
